Residues, ends and D or L forms follow the SMILES beside them. *: point of attachment. FITC = O=C1OC2(c3ccc(O)cc3Oc3cc(O)ccc32)c2ccc(NC(=S)*)cc21
How the values were obtained:
Fe65 PTB2 domain = details: Discussion; read-out: dissociation constant, Fe65 (given jointly for X11/Fe65); cited from earlier work
Text: One threonine (T668) in APP located in this extended region is susceptible to phosphorylation and acts as a switch that repartitions the cis and trans states of the adjacent proline (P669) that, in turn, affects the ability of Fe65 to engage its ligand. […] This difference in affinity may be advantageous for AIDA1 to participate in signaling contexts beyond APP. From a peptide array study, we determined that the consensus sequence is less stringent NxxY versus NPxY for others in the same Dab-like class of PTB domains. Thus, at the neuronal synapse, AIDA1 could serve as a versatile collator and ...

AIDA1 PTB domain = test: Binding of APP peptides to the AIDA1 PTB domain; set-up: species or system human
Text: A gene fragment encoding the PTB domain (aa. 1043–1195) of human AIDA1b was PCR amplified with NdeI and EcoRI restriction sites and was subsequently inserted into pET28a (Novagen). The expressed protein contained an amino terminal 6xHis tag and intervening thrombin site. Other PTB domain fragments that lacked either the N-terminal 6xHis tag or the entire affinity tag along with 16 additional unstructured residues were also as […] as the fragment chosen for this study. To align the PTB domain described in this study with numerous AIDA1 isoforms, S1 in the PTB domain structure corresponds to S1045 in AIDA1b, the longest isoform. A one-liter fermentation in a minimal medium containing 1 g of ^15NH4Cl and 4 g of ^13C-glucose was sufficient to produce 5–10 mg of purified protein. Purification was achieved by Nickel-NTA affinity chromatography (Qiagen) and gel filtration chromatography on a S-100 HR 16/60 size exclusion column (GE Biosciences). Final buffer conditions were 20 mM Na-phosphate, pH 7.8, 0.15 M NaCl, 0.05% (w/v) NaN3. […] A 6xHis tagged PTB domain variant containing all five substitutions (PTB5M) was produced by DNA2.0 (Menlo Park, CA) by direct gene synthesis in the expression vector, pJExpress401 (T5 promoter plus kanamycin resistance). A 6xHis-tagged, APP-peptide ([…]) fused to the amino terminus of the AIDA1 PTB5M mutant with an intervening thrombin site was also synthesized by DNA2.0 in pJExpress401.
(§1) Fluorescein isothiocyanate (FITC) labeled peptides spanning portions of APP were produced and purified by CanPeptide (Montreal, QC) for fluorescence anisotropy based binding studies at 25°C using an Agilent Eclipse spectrophotometer equipped with a manual polarizer accessory. Buffer conditions were similar to those used for NMR spectroscopy. […] Anisotropy was calculated from the relationship (Iparallel–GIperp)/(Iparallel[…]) and normalized with the blank experiment. The equilibrium dissociation constant (KD) was calculated by direct fitting the titration curves with a standard two-state relationship using proFit 6.2 (Quantsoft).

X11 PTB domain = details: Discussion; read-out: dissociation constant, X11 (given jointly for X11/Fe65); cited from earlier work
Text: This difference in affinity may be advantageous for AIDA1 to participate in signaling contexts beyond APP. From a peptide array study, we determined that the consensus sequence is less stringent NxxY versus NPxY for others in the same Dab-like class of PTB domains. Thus, at the neuronal synapse, AIDA1 could serve as a versatile collator and ...

[1] = target: T1, AIDA1 PTB domain, PTB5M mutant (Homo sapiens, UniProt Q7Z6G8, F1057A/F1065A/Y1047A/Y1111A/Y1172A); test: Fluorescence anisotropy binding of FITC-labeled APP peptides to PTB5M; details: FITC-labeled peptide, 25°C, buffer similar to NMR (20 mM Na-phosphate, pH 7.8, 0.15 M NaCl), two-state fit, n = 4 (APP-32), n = 2 (APP-17), n = 1 (APP-17{pY})
T1 construct: A gene fragment encoding the PTB domain (aa. 1043–1195) of human AIDA1b; 6xHis; made in house; host or cells: gene synthesised by DNA2.0 in pJExpress401
T1 sequence (Q7Z6G8 1043-1195 Y1047A/F1057A/F1065A/Y1111A/Y1172A): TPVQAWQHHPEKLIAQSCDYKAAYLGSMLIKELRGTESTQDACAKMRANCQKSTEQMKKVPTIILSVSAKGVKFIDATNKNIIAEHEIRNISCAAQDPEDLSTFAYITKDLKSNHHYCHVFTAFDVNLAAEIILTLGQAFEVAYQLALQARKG
Text: (§2) A gene fragment encoding the PTB domain (aa. 1043–1195) of human AIDA1b was PCR amplified with NdeI and EcoRI restriction sites and was subsequently inserted into pET28a (Novagen). The expressed protein contained an amino terminal 6xHis tag and intervening thrombin site. Other PTB domain fragments that lacked either the N-terminal 6xHis tag or the entire affinity tag along with 16 additional unstructured residues were also as […] as the fragment chosen for this study. To align the PTB domain described in this study with numerous AIDA1 isoforms, S1 in the PTB domain structure corresponds to S1045 in AIDA1b, the longest isoform. A one-liter fermentation in a minimal medium containing 1 g of ^15NH4Cl and 4 g of ^13C-glucose was sufficient to produce 5–10 mg of purified protein. […]
as §1, with “accessory.” for “accessory. Buffer conditions were similar to those used for NMR spectroscopy.”

[2] = target: T2, AIDA1 PTB domain, Y70A mutant (PTBY70A) (Homo sapiens, UniProt Q7Z6G8, Y1111A); test: Fluorescence anisotropy binding of FITC-labeled APP peptides to PTBY70A; details: FITC-labeled peptide, 25°C, buffer similar to NMR (20 mM Na-phosphate, pH 7.8, 0.15 M NaCl), two-state fit, n = 4 (APP-32), n = 2 (APP-17)
T2 construct: A gene fragment encoding the PTB domain (aa. 1043–1195) of human AIDA1b; 6xHis tag with thrombin site (N); made in house; host or cells: pET28a vector
T2 sequence (Q7Z6G8 1040-1192 Y1111A): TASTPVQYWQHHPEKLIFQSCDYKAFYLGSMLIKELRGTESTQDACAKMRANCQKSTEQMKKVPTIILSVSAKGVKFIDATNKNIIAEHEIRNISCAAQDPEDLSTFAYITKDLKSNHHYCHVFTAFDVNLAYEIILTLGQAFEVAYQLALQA
Text: as §2
as §1, with “accessory.” for “accessory. Buffer conditions were similar to those used for NMR spectroscopy.”

Which Kd (Fe65 PTB2 domain) does the source give for “amyloid protein precursor (APP): amyloid protein precursor (APP)” here?
The Kd was < 1 µM.

What about the Kd (AIDA1 PTB domain; approximate value of text/abstract) of the same compound?
The Kd was ~10 µM.

And the “affinity of the AIDA1 PTB domain (in words)” value (AIDA1 PTB domain; relative to similar APP binding proteins such as X11/Fe65)?
Its value is “moderate”.

And the Kd (X11 PTB domain)?
Its Kd is < 1 µM.

For `CSCC[C@H](NC(=O)[C@H](CCC(N)=O)NC(=O)[C@H](CCC(=O)O)NC(=O)[C@H](Cc1ccccc1)NC(=O)[C@H](Cc1ccccc1)NC(=O)[C@H](CCCCN)NC(=O)[C@H](Cc1ccc(O)cc1)NC(=O)[C@@H](NC(=O)[C@@H]1CCCN1C(=O)[C@H](CC(N)=O)NC(=O)[C@H](CCC(=O)O)NC(=O)[C@H](Cc1ccc(O)cc1)NC(=O)CNC(=O)[C@H](CC(N)=O)NC(=O)[C@H](CCC(N)=O)NC(=O)CNC(=O)CNC(=S)Nc1ccc2c(c1)C(=O)OC21c2ccc(O)cc2Oc2cc(O)ccc21)[C@@H](C)O)C(=O)N[C@@H](CCC(N)=O)C(=O)N[C@@H](CC(N)=O)C(=O)O` [APP-17] ({FITC}-GGQNGYENPTYKFFEQMQN-OH; C-terminus assumed), which “binding affinity to the AIDA1 PTB domain, long versus short APP peptide” value (AIDA1 PTB domain; fluorescence anisotropy titration, in words) is on record?
Its value is “no differences in binding affinity”.

Which results are given for `CSCC[C@H](NC(=O)[C@H](CCC(N)=O)NC(=O)[C@H](CCC(=O)O)NC(=O)[C@H](Cc1ccccc1)NC(=O)[C@H](Cc1ccccc1)NC(=O)[C@H](CCCCN)NC(=O)[C@H](Cc1ccc(O)cc1)NC(=O)[C@@H](NC(=O)[C@@H]1CCCN1C(=O)[C@H](CC(N)=O)NC(=O)[C@H](CCC(=O)O)NC(=O)[C@H](Cc1ccc(O)cc1)NC(=O)CNC(=O)[C@H](CC(N)=O)NC(=O)[C@H](CCC(N)=O)NC(=O)[C@H](CCC(N)=O)NC(=O)[C@H](CCSC)NC(=O)[C@H](CCCCN)NC(=O)[C@H](CO)NC(=O)[C@H](CC(C)C)NC(=O)[C@H](Cc1c[nH]cn1)NC(=O)[C@H](CCCNC(=N)N)NC(=O)[C@H](CCC(=O)O)NC(=O)[C@H](CCC(=O)O)NC(=O)[C@@H]1CCCN1C(=O)[C@@H](NC(=O)[C@@H](NC(=O)[C@H](C)NC(=O)[C@H](C)NC(=O)[C@H](CC(=O)O)NC(=O)CNC(=O)CN)C(C)C)[C@@H](C)O)[C@@H](C)O)C(=O)N[C@@H](CCC(N)=O)C(=O)N[C@@H](CC(N)=O)C(=O)O` [APP-32] (H-GGDAAVTPEERHLSKMQQNGYENPTYKFFEQMQN-OH)?
Kd [1]: 14.8 ± 1 µM; Kd [2]: 13.3 ± 1.5 µM

Source: PMC3683042, “Solution Structure and Peptide Binding of the PTB Domain from the AIDA1 Postsynaptic Signaling Scaffolding Protein” (PLoS ONE, 2013)
